In general, inhibition refers to the relative decrease from the control value, in per cent.

For this experiment, the system named is RSV-GFP. Briefly: microbe, parasite or virus in culture. Format: cell-based, Respiratory syncytial virus. The conditions noted are these: for inhibition at 10 µM: human respiratory syncytial virus, HEp-2, read-out: RSV-GFP inhibition (%); for RSV-GFP inhibition (%): 10.0 µM, HEp-2, RSV-GFP MOI 0.5, single replicate; for RSV inhibition in the screen: HEp-2, RSV-GFP. The method, then:
The following morning, cells were washed twice with serum-free EMEM and treated with RSV-GFP (MOI 0.5) in a minimal volume of serum-free media for 90 min under frequent agitation. Unbound virus was then removed and replaced with fresh serum-containing EMEM. All drug additions were performed 2 h post-viral exposure, unless otherwise stated.
Automated quantification of infection rates from fluorescent images were performed in CellProfiler (v2.2.0)[86]. Major steps in the image analysis pipeline included: (1) background subtraction and smoothing, (2) segmentation of nuclei, (3) segmentation of GFP-fluorescent area, (4) object masking, and (5) measurement of nuclear number, size, and intensity. Infection rate was quantified from the ratio of nuclei within GFP-fluorescent area to the total number of nuclei (Fig. 1b). This method of analysis accounts for in vitro syncytium formation induced by RSV, whereby a single infected cell may arise from the fusion of multiple cells. Mean nuclear fluorescent intensity and size was quantified as a measure of cell viability.
The MicroSource […] Collection (Discovery Systems Inc.) consisting of 2400 compounds was screened using the previously outlined RSV-GFP infection assay protocol. Robot-assisted addition of drugs was performed within 1 h of RSV-GFP infection and infection rates were assayed 48 h p.i. Drugs were provided as 10 mM stocks in DMSO and serial diluted to a final concentration of 10 µM, resulting in a final DMSO concentration of 0.1% v/v. […] Hits were selected based on the criteria that: (a) the tested drug caused a >50% reduction in infection rate and (b) was not overtly cytotoxic (<10% change in mean nuclear intensity relative to DMSO control). Z-factors were calculated on a per-plate basis to monitor assay quality.

Where a name gives a salt, the structure may show the parent alone.

As for `CN(C)c1ccc2nc3ccc(=[N+](C)C)cc-3sc2c1` [Methylene blue], the inhibition at 10 µM was 67.8%.
On the same count and under the same terms, the result for `Cc1nc2ccccc2n1Cc1ccc(Cl)cc1` [Chlormidazole] reads 68.5%.
On the same count and under the same terms, the value for `Cc1cc(N)c2ccccc2[n+]1CCCCCCCCCC[n+]1c(C)cc(N)c2ccccc21` [Dequalinium chloride] was 63.8%; that for `C#C[C@]1(OC(C)=O)CC[C@H]2[C@@H]3CCC4=CC(=O)CC[C@@H]4[C@H]3CC[C@@]21C` [Norethindrone acetate] was 54.2%; that for `CCCCCCCCCCCCCCCC[N+](C)(C)C` [Cetrimonium bromide] was 71.2%.
On the same count and under the same terms, the value for `C[C@@H]1C[C@@H]([C@H](O)CC2CC(=O)NC(=O)C2)C(=O)[C@@H](C)C1` [Cycloheximide] was 75%; that for `CCCCCCCCCc1ccc(OCCOCCOCCOCCOCCOCCOCCOCCOCCO)cc1` [Nonoxynol-9] was 69.2%.
As for `COc1cc2c(cc1OC)[C@@H]1C(=O)c3c(O)cc4c(c3O[C@@H]1CO2)C=CC(C)(C)O4` [Alpha-toxicarol], the “RSV-GFP inhibition (%)” value is recorded as 63.58%.
On to `O=c1cc(-c2ccc(O)cc2)oc2ccc(O)cc12` [6,4’-Dihydroxyflavone], for which the inhibition at 10 µM was 75.3%.
For the molecule `CC(C)n1c(/C=C/C(O)CC(O)CC(=O)O)c(-c2ccc(F)cc2)c2ccccc21` (centres unmarked) [Fluvastatin], the “RSV inhibition in the screen” value is given as “inhibit RSV at low micromolar concentrations” and the inhibition at 10 µM amounted to 73.2%.
For the molecule `CC[C@@]1(O)C(=O)OCc2c1cc1n(c2=O)Cc2cc3ccccc3nc2-1` [Camptothecin], the inhibition at 10 µM was 55.7%.
For `C=C[C@@]1(C)CC(=O)[C@]2(O)[C@@]3(C)[C@@H](O)CCC(C)(C)[C@@H]3[C@H](O)[C@H](OC(C)=O)[C@@]2(C)O1` [Colforsin], the inhibition at 10 µM came to 72.5%.
The same measure, in the same setting: the result for `CC(=O)O[C@H]1CC[C@@]2(C)[C@H](CC[C@@H]3[C@@H]2CC[C@]2(C)[C@@H](C4=CC(=O)OC4)[C@@H](OC(C)=O)C[C@]32O)C1` [Gitoxigenin diacetate] reads 91.8%; that for `COc1c(C)c2c(c(O)c1C/C=C(\C)CCC(=O)O)C(=O)OC2` [Mycophenolic acid], 98.8%.
On the same count and under the same terms, the result for `C#C[C@]1(OC(C)=O)CC[C@H]2[C@@H]3CCC4=CC(=NO)CC[C@@H]4[C@H]3CC[C@@]21CC` (mixture of isomers) [Norgestimate] reads 55%; that for `COc1c(C)c2c(c(O)c1C/C=C(\C)CCC(=O)OCCN1CCOCC1)C(=O)OC2` [Mycophenolate mofetil], 98.4%; that for `C[C@]12CCC(=O)C=C1[C@@H]1C[C@@H]1[C@H]1[C@@H]3[C@@H]4C[C@@H]4[C@@]4(CCC(=O)O4)[C@@]3(C)CC[C@@H]12` [Drospirenone], 68.3%.
On to Benzalkonium chloride, for which the “RSV-GFP inhibition (%)” value stood at 77.34%.
`C[C@@H]1O[C@@H](O[C@@H]2C=C3CC[C@@H]4[C@H](CC[C@]5(C)[C@@H](c6ccc(=O)oc6)CC[C@]45O)[C@@]3(C)CC2)[C@H](O)[C@H](O)[C@H]1O` [Proscillaridin]: the inhibition at 10 µM came out at 81.6%.
Regarding `CC[C@@H](C(=O)[C@@H](C)[C@@H](O)[C@H](C)[C@@H]1O[C@@H]([C@@H](CC)C(=O)O)CC[C@@H]1C)[C@H]1O[C@]2(C=C[C@@H](O)[C@]3(CC[C@@](C)([C@H]4CC[C@](O)(CC)[C@H](C)O4)O3)O2)[C@H](C)C[C@@H]1C` [Salinomycin, sodium], the “RSV-GFP inhibition (%)” value amounted to 96.45%.
For the molecule `N=C(N)c1ccc(OCCCCCOc2ccc(C(=N)N)cc2)cc1` [Pentamidine isethionate], the inhibition at 10 µM was found to be 60.2%.
Consider `C#CC1(O)CC[C@H]2[C@@H]3CCC4=CC(=O)CC[C@@H]4[C@H]3CC[C@@]21CC` (mixture of isomers) [Norgestrel], for which the inhibition at 10 µM is 64.1%.
In the case of `O=C1[O][Pt]2([NH][C@@H]3CCCC[C@H]3[NH]2)[O]C1=O` [Oxaliplatin], the “RSV-GFP inhibition (%)” value was 88.7%.
With `CCCCC(CC)CNC(=N)NC(=N)NCCCCCCNC(=N)NC(=N)NCC(CC)CCCC` (centres unmarked) [Alexidine hydrochloride], the inhibition at 10 µM was determined as 66.8%.
As to `CC(=O)[C@H]1CC[C@H]2[C@@H]3CCC4=CC(=O)CC[C@]4(C)[C@H]3CC[C@]12C` [Progesterone], the inhibition at 10 µM was 50.5%.
Turning to `CCc1c2c(nc3ccc(OC(=O)N4CCC(N5CCCCC5)CC4)cc13)-c1cc3c(c(=O)n1C2)COC(=O)[C@]3(O)CC.Cl` [Irinotecan hydrochloride], the “RSV-GFP inhibition (%)” value is reported as 55.56%.
For `COC(=O)[C@]1(C)CC[C@]2(C)CC[C@]3(C)C4=CC=C5C(=CC(=O)C(O)=C5C)[C@]4(C)CC[C@@]3(C)[C@@H]2C1` [Pristimerin], the inhibition at 10 µM is 74.1%.
Consider `C[C@]12CC[C@H]3[C@@H](CC[C@]4(O)C[C@@H](O)CC[C@]34C=O)[C@@]1(O)CC[C@@H]2C1=CC(=O)OC1` [Strophanthidin], for which the inhibition at 10 µM is 90.4%.
Turning to `CC1=C2C[C@H]3[C@@H](CC=C4C[C@@H](O)CC[C@@]43C)[C@@H]2CC[C@]12O[C@@H]1C[C@H](C)CN[C@H]1[C@H]2C` [Cyclopamine], the inhibition at 10 µM came out at 86%.
For the molecule `Oc1c(Cl)cc(Cl)c(Cl)c1Cc1c(O)c(Cl)cc(Cl)c1Cl` [Hexachlorophene], the inhibition at 10 µM was found to be 83.2%.
Regarding `CC1(C)C(=O)C=C[C@]2(C)[C@H]3CC[C@@]4(C)[C@H](c5ccoc5)OC(=O)[C@H]5O[C@]54[C@]3(C)C=C[C@@H]12` [7-Desacetoxy-6,7-dehydrogedunin], the “RSV-GFP inhibition (%)” value is reported as 69.38%.
Regarding `COc1ccc(-c2cc(=O)c3ccccc3o2)cc1` [4’-Methoxyflavone], the inhibition at 10 µM turned out to be 59.9%.
Still for that read-out and setting: the value for `C#C[C@]1(O)CC[C@H]2[C@@H]3CCC4=C(CCC(=O)C4)[C@H]3CC[C@@]21C` [Norethynodrel] was 75.4%; that for `Cc1c(O)c(O)cc2c1CC=C1[C@@]2(C)CC[C@@]2(C)[C@@H]3C[C@](C)(C(=O)O)CC[C@]3(C)CC[C@]12C` [Dihydrocelastrol] was 82.6%; that for `C[C@@H]1O[C@@H](O[C@H]2C[C@@H](O)[C@]3(CO)[C@H]4[C@H](O)C[C@]5(C)[C@@H](C6=CC(=O)OC6)CC[C@]5(O)[C@@H]4CC[C@]3(O)C2)[C@H](O)[C@H](O)[C@H]1O` [Ouabain] was 100%.
On to `CN(C)c1ccc(C(=C2C=CC(=[N+](C)C)C=C2)c2ccc(N(C)C)cc2)cc1` [Gentian violet], for which the inhibition at 10 µM was 86.3%.
On the same count and under the same terms, the result for `CC[C@@]1([C@@H]2O[C@@H]([C@H]3O[C@@](O)(CO)[C@H](C)C[C@@H]3C)C[C@@H]2C)CC[C@H]([C@]2(C)CC[C@]3(C[C@H](O)[C@@H](C)[C@@H]([C@@H](C)[C@@H](OC)[C@H](C)C(=O)O)O3)O2)O1` [Monensin A] reads 93.9%.
`CC(=O)Oc1cc2c(c(C)c1OC(C)=O)CC=C1[C@@]2(C)CC[C@@]2(C)C3C[C@](C)(C(=O)O)CC[C@]3(C)CC[C@]12C` (some centres unmarked) [Dihydrocelastryl diacetate]: the “RSV-GFP inhibition (%)” value was 89.96%.
Consider `CCC(=O)O[C@H]1CC[C@H]2[C@@H]3CCC4=CC(=O)CC[C@]4(C)[C@H]3CC[C@]12C` [Testosterone propionate], for which the inhibition at 10 µM was 84.7%.
As to `Nc1c2ccccc2nc2ccccc12` [Aminacrine], the inhibition at 10 µM is 58.3%.
For `CC(=O)O[C@H]1C[C@H](O[C@H]2[C@@H](O)C[C@H](O[C@H]3[C@@H](O)C[C@H](O[C@H]4CC[C@@]5(C)[C@H](CC[C@@H]6[C@@H]5C[C@@H](O)[C@]5(C)[C@@H](C7=CC(=O)OC7)CC[C@]65O)C4)O[C@@H]3C)O[C@@H]2C)O[C@H](C)[C@H]1O[C@@H]1O[C@H](CO)[C@@H](O)[C@H](O)[C@H]1O` [Lanatoside C], the inhibition at 10 µM stood at 100%.
With `CC(=O)OC1CCC23C(=O)OC45CCC(C6=CC(=O)OC6)C4(C)CCC2C5CCC3(O)C1` (centres unmarked) [Strophanthidinic acid lactone acetate], the “RSV-GFP inhibition (%)” value came out at 82.33%.
Regarding `C[C@]12CC[C@H](O)C[C@H]1CC[C@@H]1[C@@H]2C[C@@H](O)[C@]2(C)[C@@H](C3=CC(=O)OC3)CC[C@]12O` [Digoxigenin], the inhibition at 10 µM is 85.1%.
Still for that read-out and setting: the result for `C[C@H]1O[C@@H](O[C@H]2[C@@H](O)C[C@H](O[C@H]3[C@@H](O)C[C@H](O[C@H]4CC[C@@]5(C)[C@H](CC[C@@H]6[C@@H]5CC[C@]5(C)[C@@H](C7=CC(=O)OC7)[C@@H](O)C[C@]65O)C4)O[C@@H]3C)O[C@@H]2C)C[C@H](O)[C@@H]1O` [Gitoxin] reads 85.7%; that for `CO[C@H]1[C@H](O)[C@H](O[C@H]2CC[C@@]3(C=O)[C@H](CC[C@@H]4[C@@H]3CC[C@]3(C)[C@@H](C5=CC(=O)OC5)CC[C@]43O)C2)O[C@@H](C)[C@@H]1O` [Peruvoside], 98.2%; that for `CC[C@H]1CN2CCc3cc(OC)c(OC)cc3[C@@H]2C[C@@H]1C[C@H]1NCCc2cc(OC)c(OC)cc21` [Emetine dihydrochloride], 100%.
Turning to Antimycin A1, the “RSV-GFP inhibition (%)” value was determined as 79.49%.
Consider `O=C(O)C[C@H](O)C[C@H](O)/C=C/c1c(C2CC2)nc2ccccc2c1-c1ccc(F)cc1` [Pitavastatin calcium], for which the “RSV inhibition in the screen” value is “inhibit RSV at low micromolar concentrations” and the inhibition at 10 µM was 63.4%.

(Values after PMC8556396, “Statin-mediated disruption of Rho GTPase prenylation and activity inhibits respiratory syncytial virus infection” (Communications Biology, 2021).)
